From publication PMC3878165 (Bioorganic & Medicinal Chemistry Letters, 2013)

How the values were obtained:
[1] = system: Eurofins lead-profiling screen; assay type: binding
melatonin MT1 receptor = melatonin MT1 receptor (Homo sapiens, UniProt P48039); assay type: binding
PLpro = PLpro (Severe acute respiratory syndrome coronavirus, UniProt P0C6U8); assay: biochemical; design: species or system SARS-CoV

Chain of melatonin MT1 receptor (P48039 whole entry): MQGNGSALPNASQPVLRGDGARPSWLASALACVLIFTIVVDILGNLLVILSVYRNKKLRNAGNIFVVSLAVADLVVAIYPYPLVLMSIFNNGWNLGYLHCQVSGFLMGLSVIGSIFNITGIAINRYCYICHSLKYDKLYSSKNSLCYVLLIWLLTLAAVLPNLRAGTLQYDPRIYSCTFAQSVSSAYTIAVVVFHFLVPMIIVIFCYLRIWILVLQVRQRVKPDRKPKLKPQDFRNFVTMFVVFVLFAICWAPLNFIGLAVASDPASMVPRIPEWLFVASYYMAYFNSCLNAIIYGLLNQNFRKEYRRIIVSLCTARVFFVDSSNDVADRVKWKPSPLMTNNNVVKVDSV

O=C(Nc1ccc(N(Cc2ccsc2)C(=O)Cn2nnc3ccccc32)cc1)C1CC1 [16e]
Eurofins Profiler Screen result in words [1]: highly selective | melatonin MT1 receptor activity in words (melatonin MT1 receptor): modest activity

CCC(C)(C)NC(=O)[C@@H](c1ccn(C)c1)N(C(=O)Cn1nnc2ccccc21)c1ccc(NC(C)=O)cc1 [compound 7]
IC50 (PLpro): > 60 µM
